Measured values published in US11970479B2, “3-(1H-pyrazol-4-yl)pyridine allosteric modulators of the M4 muscarinic acetylcholine receptor” (Merck Sharp & Dohme LLC, priority 2018, dated 2024).

Biological target: T1, human M4 muscarinic acetylcholine receptor (Homo sapiens, UniProt P08173)
T1 construct: expressed in transfected cells
T1 sequence (P08173 1-479): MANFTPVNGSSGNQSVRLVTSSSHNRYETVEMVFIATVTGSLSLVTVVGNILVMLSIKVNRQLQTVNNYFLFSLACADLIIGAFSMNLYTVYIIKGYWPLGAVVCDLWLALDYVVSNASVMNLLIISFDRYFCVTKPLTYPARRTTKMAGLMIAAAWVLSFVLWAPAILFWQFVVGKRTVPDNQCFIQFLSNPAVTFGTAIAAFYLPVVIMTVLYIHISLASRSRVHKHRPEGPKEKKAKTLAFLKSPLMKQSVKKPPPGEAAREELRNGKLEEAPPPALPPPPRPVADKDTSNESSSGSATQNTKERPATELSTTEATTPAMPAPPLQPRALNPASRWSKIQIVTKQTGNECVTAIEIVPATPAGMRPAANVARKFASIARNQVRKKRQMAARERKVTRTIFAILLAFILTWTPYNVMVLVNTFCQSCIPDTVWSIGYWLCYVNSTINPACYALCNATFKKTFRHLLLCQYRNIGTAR
Experiment: human FLIPR-based M4 PAM assay (CHO-K1 cells with human M4 receptor and Gαqi5, calcium dye fluorescence, EC20 acetylcholine)
Format: cell-based
Conditions: inflection point (IP) of the dose response curve, human M4 receptor/Gαqi5, acetylcholine at 20% of maximum response, read-out: M4PAM Hu IP
Outline: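 CHO-K1 cells stably expressing human M4 and chimeric Gαqi5 were dye-loaded ~1 h at 37° C. Test compound was added with fluorescence recorded 4 min, then acetylcholine at EC20 (sometimes a further EC70 addition) with reading 3.5 min. Value is the inflection point of a 4-parameter logistic fit.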

Row | Structure (SMILES) | EC50 [nM]
1 | CC(C)(Cn1cc(-c2ccc(C#N)nc2-c2ccc3cccnc3c2)cn1)C(F)F [Example 90, 5-[1-(3,3-difluoro-2,2-dimethylpropyl)-1H-pyrazol-4-yl]-6-quinolin-7-ylpyridine-2-carbonitrile] | 27
2 | CC(C)(CCn1cc(-c2ccc(C#N)nc2-c2ccc3cccnc3c2)cn1)C(F)(F)F [Example 91, 6-quinolin-7-yl-5-[1-(4,4,4-trifluoro-3,3-dimethylbutyl)-1H-pyrazol-4-yl]pyridine-2-carbonitrile] | 190
3 | N#Cc1ccc(-c2cnn(CC(F)(F)C(F)F)c2)c(-c2ccc3cccnc3c2)n1 [Example 92, 6-quinolin-7-yl-5-[1-(2,2,3,3-tetrahydropropyl)-1H-pyrazol-4-yl]pyridine-2-carbonitrile] | 131
4 | Cc1ccc(-c2cnn(CC3(C)CCC(F)(F)CC3)c2)c(-c2ccc3cccnc3c2)n1 [Example 93, 7-(3-{1-[(4,4-difluoro-1-methylcyclohexyl)methyl]-1H-pyrazol-4-yl}-6-methylpyridin-2-yl)quinoline] | 24
5 | CC1(Cn2cc(-c3cccnc3-c3ccc4cccnc4c3)cn2)CCCCC1 [Example 94, 7-(3-{1-[(1-methylcyclohexyl)methyl]-1H-pyrazol-4-yl}pyridin-2-yl)quinoline] | 52
6 | c1cnc(-c2ccc3cccnc3c2)c(-c2cnn(CCC3CCC3)c2)c1 [Example 95, 7-{3-[1-(2-cyclobutylethyl)-1H-pyrazol-4-yl]pyridin-2-yl}quinoline] | 158
7 | c1cnc(-c2ccc3cccnc3c2)c(-c2cnn(CCC3CC3)c2)c1 [Example 96, 7-{3-[1-(2-cyclopropylethyl)-1H-pyrazol-4-yl]pyridin-2-yl}quinoline] | 239
8 | CC1(Cn2cc(-c3ccc(C#N)nc3-c3ccc4cccnc4c3)cn2)CC1 [Example 97, 5-{1-[(1-methylcyclopropyl)methyl]-1H-pyrazol-4-yl}-6-quinolin-7-ylpyridine-2-carbonitrile] | 87
9 | COc1cc2ccc(-c3nc(C)ccc3-c3cnn(CC4CC4(C)C)c3)cc2nn1 (centres unmarked) [Example 100, 7-(3-{1-[(2,2-dimethylcyclopropyl)methyl]-1H-pyrazol-4-yl}-6-methylpyridin-2-yl)-3-methoxycinnoline] | 81
10 | Cc1ccc(-c2cnn(CC3CC3(C)C)c2)c(-c2ccc3cccnc3c2)n1 (centres unmarked) [Example 101, 7-(3-{1-[(2,2-dimethylcyclopropyl)methyl]-1H-pyrazol-4-yl}-6-methylpyridin-2-yl)quinoline] | 100
11 | COc1cc2ccc(-c3nc(C#N)ccc3-c3cnn(CC4CC4(C)C)c3)cc2nn1 (centres unmarked) [Example 102, 5-{1-[(2,2-dimethylcyclopropyl)methyl]-1H-pyrazol-4-yl}-6-(3-methoxycinnolin-7-yl)pyridine-2-carbonitrile] | 91
12 | CC1(C)CC1Cn1cc(-c2ccc(C#N)nc2-c2ccc3cccnc3c2)cn1 (centres unmarked) [Example 103, 5-{1-[(2,2-dimethylcyclopropyl)methyl]-1H-pyrazol-4-yl}-6-quinolin-7-ylpyridine-2-carbonitrile] | 45
13 | COc1cc2ccc(-c3nc(C#N)ccc3-c3cnn(CC4(CC#N)CC4)c3)cc2nn1 [Example 104, 5-(1-{[1-(cyanomethyl)cyclopropyl]methyl}-1H-pyrazol-4-yl)-6-(3-methoxycinnolin-7-yl)pyridine-2-carbonitrile] | 154
14 | N#CCC1(Cn2cc(-c3ccc(C#N)nc3-c3ccc4cccnc4c3)cn2)CC1 [Example 105, 5-(1-{[1-(cyanomethyl)cyclopropyl]methyl}-1H-pyrazol-4-yl)-6-quinolin-7-ylpyridine-2-carbonitrile] | 120
15 | c1cnc(-c2ccc3cccnc3c2)c(-c2cnn(CC3CCCCC3)c2)c1 [Example 106, 7-{3-[1-(cyclohexylmethyl)-1H-pyrazol-4-yl]pyridin-2-yl}quinoline] | 93
16 | COc1cc2ccc(-c3nc(C)ccc3-c3cnn(CC4CCCCC4)c3)cc2nn1 [Example 107, 7-{3-[1-(cyclohexylmethyl)-1H-pyrazol-4-yl]-6-methylpyridin-2-yl}-3-methoxycinnoline] | 16
17 | COc1cc2ccc(-c3nc(C)ccc3-c3cnn(C4CCC(F)(F)CC4)c3)cc2nn1 [Example 108, 7-{3-[1-(4,4-difluorocyclohexyl)-1H-pyrazol-4-yl]-6-methylpyridin-2-yl}-3-methoxycinnoline] | 142
18 | CC(C)(C)Cn1cc(-c2ccc(C(F)F)nc2-c2ccc3cccnc3c2)cn1 [Example 109, 7-{6-(difluoromethyl)-3-[1-(2,2-dimethylpropyl)-1H-pyrazol-4-yl]pyridin-2-yl}quinoline] | 48
19 | CC(C)Cn1cc(-c2ccc(C#N)nc2-c2ccc3cccnc3c2)cn1 [Example 110, 5-[1-(2-methylpropyl)-1H-pyrazol-4-yl]-6-quinolin-7-ylpyridine-2-carbonitrile] | 129
20 | N#Cc1ccc(-c2cnn(CC3(F)CC3)c2)c(-c2ccc3cccnc3c2)n1 [Example 111, 5-{1-[(1-fluorocyclopropyl)methyl]-1H-pyrazol-4-yl}-6-quinolin-7-ylpyridine-2-carbonitrile] | 110
21 | COc1cc2ccc(-c3nc(C#N)ccc3-c3cnn(CC(F)(F)C(F)(F)F)c3)cc2nn1 [Example 112, 6-(3-methoxycinnolin-7-yl)-5-[1-(2,2,3,3,3-pentafluoropropyl)-1H-pyrazol-4-yl]pyridine-2-carbonitrile] | 138
22 | CC(C)(CO)Cn1cc(-c2ccc(C#N)nc2-c2ccc3cccnc3c2)cn1 [Example 113, 5-[1-(3-hydroxy-2,2-dimethylpropyl)-1H-pyrazol-4-yl]-6-quinolin-7-ylpyridine-2-carbonitrile] | 139
23 | COc1cc2ccc(-c3nc(C)ccc3-c3cnn(CC(C)(C)F)c3)cc2nn1 [Example 114, 7-{3-[1-(2-fluoro-2-methylpropyl)-1H-pyrazol-4-yl]-6-methylpyridin-2-yl}-3-methoxycinnoline] | 191
24 | COc1cc2ccc(-c3nc(C(F)F)ccc3-c3cnn(CC(C)(C)F)c3)cc2nn1 [Example 115, 7-{6-(difluoromethyl)-3-[1-(2-fluoro-2-methylpropyl)-1H-pyrazol-4-yl]pyridin-2-yl}-3-methoxycinnoline] | 190
25 | N#Cc1ccc(-c2cnn(CC3(F)CCC3)c2)c(-c2ccc3cccnc3c2)n1 [Example 116, 5-{1-[(1-fluorocyclobutyl)methyl]-1H-pyrazol-4-yl}-6-quinolin-7-ylpyridine-2-carbonitrile] | 39
26 | CC(C)(O)C(F)(F)Cn1cc(-c2ccc(C#N)nc2-c2ccc3cccnc3c2)cn1 [Example 117, 5-[1-(2,2-difluoro-3-hydroxy-3-methylbutyl)-1H-pyrazol-4-yl]-6-quinolin-7-ylpyridine-2-carbonitrile] | 104
